MBC, MIC and MFC data for 5 compounds are collected here from ChEMBL document CHEMBL4396937, “Synthesis of new triazole fused imidazo[2,1-b]thiazole hybrids with emphasis on Staphylococcus aureus virulence factors” (Bioorg Med Chem Lett, 2019).

Usually MBC stands for the smallest concentration meeting the test's criterion for killing. The term MIC denotes the least concentration at which growth counts as inhibited. One may read the MFC as the lowest tested concentration that kills the fungus rather than only halting it.

In brackets after ≈: the same amount, converted by molar mass.

What all share (type): functional
Assay [1] concerns Staphylococcus aureus. In words: Bactericidal activity against Staphylococcus aureus MLS-16 MTCC 2940 assessed as reduction in bacterial survival incubated for 24 hrs followed by transfer of microbial suspension to agar plates and measured at 24 hrs post transfer by agar well diffusion method. Conditions: MLS-16 MTCC 2940, 24 h. On the technique in general: In agar diffusion tests the substance spreads into inoculated agar from a disc or well.

The subject of assay [2] is Candida albicans. In words: Antifungal activity against Candida albicans MTCC 3017 assessed as reduction in fungal growth incubated for 24 hrs by agar well diffusion method. Conditions: MTCC 3017, 24 h.
Assay [3] relates to Bacillus subtilis. In words: Bactericidal activity against Bacillus subtilis MTCC 121 assessed as reduction in bacterial survival incubated for 24 hrs followed by transfer of microbial suspension to agar plates and measured at 24 hrs post transfer by agar well diffusion method. To be noted: MTCC 121, 24 h.
The subject of assay [4] is Micrococcus luteus. In words: Antibacterial activity against Micrococcus luteus MTCC 2470 assessed as reduction in bacterial growth incubated for 24 hrs by agar well diffusion method. To be noted: MTCC 2470, 24 h.
Assay [5] deals with Staphylococcus aureus. In words: Antibacterial activity against Staphylococcus aureus MLS-16 MTCC 2940 assessed as reduction in bacterial growth incubated for 24 hrs by agar well diffusion method. To be noted: MLS-16 MTCC 2940, 24 h.
In assay [6] the test system is Escherichia coli. In words: Antibacterial activity against Escherichia coli MTCC 739 assessed as reduction in bacterial growth incubated for 24 hrs by agar well diffusion method. Conditions: MTCC 739, 24 h.
Assay [7] relates to Micrococcus luteus. In words: Bactericidal activity against Micrococcus luteus MTCC 2470 assessed as reduction in bacterial survival incubated for 24 hrs followed by transfer of microbial suspension to agar plates and measured at 24 hrs post transfer by agar well diffusion method. To be noted: MTCC 2470, 24 h.
In assay [8] the test system is Raoultella planticola. In words: Bactericidal activity against Klebsiella planticola MTCC 530 assessed as reduction in bacterial survival incubated for 24 hrs followed by transfer of microbial suspension to agar plates and measured at 24 hrs post transfer by agar well diffusion method. Conditions: MTCC 530, 24 h.
Assay [9] deals with Candida albicans. In words: Fungicidal activity against Candida albicans MTCC 3017 assessed as reduction in fungal survival incubated for 24 hrs followed by transfer of microbial suspension to agar plates and measured at 24 hrs post transfer by agar well diffusion method. To be noted: MTCC 3017, 24 h.
Assay [10] relates to Escherichia coli. In words: Bactericidal activity against Escherichia coli MTCC 739 assessed as reduction in bacterial survival incubated for 24 hrs followed by transfer of microbial suspension to agar plates and measured at 24 hrs post transfer by agar well diffusion method. To be noted: MTCC 739, 24 h.
The subject of assay [11] is Pseudomonas aeruginosa. In words: Bactericidal activity against Pseudomonas aeruginosa MTCC 2453 assessed as reduction in bacterial survival incubated for 24 hrs followed by transfer of microbial suspension to agar plates and measured at 24 hrs post transfer by agar well diffusion method. Conditions: MTCC 2453, 24 h.
Assay [12] has as its system Bacillus subtilis. In words: Antibacterial activity against Bacillus subtilis MTCC 121 assessed as reduction in bacterial growth incubated for 24 hrs by agar well diffusion method. Conditions: MTCC 121, 24 h.
Assay [13] deals with Staphylococcus aureus. In words: Antibacterial activity against Staphylococcus aureus MTCC 96 assessed as reduction in bacterial growth incubated for 24 hrs by agar well diffusion method. Conditions: MTCC 96, 24 h.
The test system of assay [14] is Staphylococcus aureus. In words: Bactericidal activity against Staphylococcus aureus MTCC 96 assessed as reduction in bacterial survival incubated for 24 hrs followed by transfer of microbial suspension to agar plates and measured at 24 hrs post transfer by agar well diffusion method. To be noted: MTCC 96, 24 h.
In assay [15] the test system is Pseudomonas aeruginosa. In words: Antibacterial activity against Pseudomonas aeruginosa MTCC 2453 assessed as reduction in bacterial growth incubated for 24 hrs by agar well diffusion method. To be noted: MTCC 2453, 24 h.
Assay [16] concerns Raoultella planticola. In words: Antibacterial activity against Klebsiella planticola MTCC 530 assessed as reduction in bacterial growth incubated for 24 hrs by agar well diffusion method. To be noted: MTCC 530, 24 h.

Consider `COc1ccc(-c2nc3sccn3c2C(=O)c2cn(-c3ccc(Cl)cc3)nn2)cc1`, for which the MBC in assay [1] is 15.6 µg/mL (≈ 35.8 µM); in assay [3], 7.8 µg/mL (≈ 17.9 µM); in assay [7], 7.8 µg/mL (≈ 17.9 µM); in [8], greater than 125 µg/mL; in assay [10], greater than 125 µg/mL; in assay [11], greater than 125 µg/mL. Further, in [14], the MBC was 7.8 µg/mL (≈ 17.9 µM). The MIC in assay [2] is 15.6 µg/mL (≈ 35.8 µM); in assay [4], 3.9 µg/mL (≈ 8.95 µM); in assay [5], 7.8 µg/mL (≈ 17.9 µM); in assay [6], greater than 125 µg/mL; in [12], 3.9 µg/mL (≈ 8.95 µM); in [13], 3.9 µg/mL (≈ 8.95 µM). Besides, the MIC in [15] and in assay [16] was greater than 125 µg/mL each time. In addition, the MFC in assay [9] was 31.2 µg/mL (≈ 71.6 µM).
Regarding `COc1ccc(-c2nc3sccn3c2C(=O)c2cn(-c3ccc(F)cc3Br)nn2)cc1`, the MBC in assay [1] was 15.6 µg/mL (≈ 31.3 µM); in [3], 15.6 µg/mL (≈ 31.3 µM); in assay [7], 7.8 µg/mL (≈ 15.7 µM); in [8] it was 15.6 µg/mL (≈ 31.3 µM); in [10], greater than 125 µg/mL; in assay [11], greater than 125 µg/mL. Also, the MBC in assay [14] is 7.8 µg/mL (≈ 15.7 µM). The minimum inhibitory concentration (MIC) in assay [2] is 7.8 µg/mL (≈ 15.7 µM); in assay [4], 3.9 µg/mL (≈ 7.83 µM); in [5] it was 7.8 µg/mL (≈ 15.7 µM); in [6], greater than 125 µg/mL; in assay [12], 7.8 µg/mL (≈ 15.7 µM); in assay [13], 3.9 µg/mL (≈ 7.83 µM). Besides, the figures for the MIC in [15] and in assay [16] were greater than 125 µg/mL and 15.6 µg/mL (≈ 31.3 µM), respectively. Further, the minimum fungicidal concentration (MFC) in [9] came out at 15.6 µg/mL (≈ 31.3 µM).
Consider `COc1ccc(-n2cc(C(=O)c3c(-c4ccc(Cl)cc4)nc4sccn34)nn2)cc1`, for which the MBC was 15.6 µg/mL (≈ 35.8 µM) in assay [1]; 7.8 µg/mL (≈ 17.9 µM) in [3]; 7.8 µg/mL (≈ 17.9 µM) in assay [7]; 7.8 µg/mL (≈ 17.9 µM) in assay [8]; greater than 125 µg/mL in [10]; greater than 125 µg/mL in [11]. Moreover, in assay [14], the MBC was found to be 7.8 µg/mL (≈ 17.9 µM). Moreover, the MIC was 7.8 µg/mL (≈ 17.9 µM) in [2]; 3.9 µg/mL (≈ 8.95 µM) in [4]; 7.8 µg/mL (≈ 17.9 µM) in assay [5]; greater than 125 µg/mL in assay [6]; 3.9 µg/mL (≈ 8.95 µM) in assay [12]; 3.9 µg/mL (≈ 8.95 µM) in assay [13]. The MIC in assay [15] was greater than 125 µg/mL; in assay [16], 3.9 µg/mL (≈ 8.95 µM). Also, in assay [9], the MFC was 15.6 µg/mL (≈ 35.8 µM).
On to `O=C(c1cn(-c2ccc(F)cc2Br)nn1)c1c(-c2ccc(Cl)cc2)nc2sccn12`, for which the MBC in [1] is 15.6 µg/mL (≈ 31 µM); in assay [3] it was 7.8 µg/mL (≈ 15.5 µM); in assay [7], 7.8 µg/mL (≈ 15.5 µM); in assay [8] it was 7.8 µg/mL (≈ 15.5 µM); in assay [10] it was greater than 125 µg/mL; in assay [11] it was greater than 125 µg/mL. The minimal bactericidal concentration (MBC) in assay [14] turned out to be 7.8 µg/mL (≈ 15.5 µM). The MIC in [2] is 7.8 µg/mL (≈ 15.5 µM); in [4], 3.9 µg/mL (≈ 7.76 µM); in assay [5] it was 7.8 µg/mL (≈ 15.5 µM); in assay [6], greater than 125 µg/mL; in assay [12] it was 3.9 µg/mL (≈ 7.76 µM); in [13] it was 3.9 µg/mL (≈ 7.76 µM). The MIC in assay [15] was greater than 125 µg/mL; in [16] it was 3.9 µg/mL (≈ 7.76 µM). In addition, the MFC in assay [9] was determined as 15.6 µg/mL (≈ 31 µM).
Turning to `O=C(c1cn(-c2ccc(F)cc2)nn1)c1c(-c2ccc(Cl)cc2)nc2sccn12`, the minimum bactericidal concentration (MBC) is 15.6 µg/mL (≈ 36.8 µM) in assay [1]; 7.8 µg/mL (≈ 18.4 µM) in assay [3]; 7.8 µg/mL (≈ 18.4 µM) in assay [7]; 15.6 µg/mL (≈ 36.8 µM) in assay [8]; greater than 125 µg/mL in assay [10]; greater than 125 µg/mL in [11]. The MBC in [14] came to 7.8 µg/mL (≈ 18.4 µM). Besides, the MIC in [2] was 15.6 µg/mL (≈ 36.8 µM); in assay [4] it was 3.9 µg/mL (≈ 9.2 µM); in assay [5], 7.8 µg/mL (≈ 18.4 µM); in [6] it was greater than 125 µg/mL; in assay [12], 3.9 µg/mL (≈ 9.2 µM); in [13], 3.9 µg/mL (≈ 9.2 µM). The MIC in assay [15] was greater than 125 µg/mL; in assay [16], 7.8 µg/mL (≈ 18.4 µM). Moreover, the MFC in [9] is greater than 125 µg/mL.
